# Measurements taken from US20250041302A1, “PROLYL HYDROXYLASE DOMAIN INHIBITOR FOR TREATING HEMORRHAGIC OR BURN SHOCK” (THE GOVERNMENT OF THE UNITED STATES, AS REPRESENTED BY THE …, priority 2022, published 2025).
# “Also recorded” adds a separate entry of the source.
# Key:
# [1] = tested on: swine model of 40% total burned surface area burn; assay: Porcine burn shock pilot study, 40% total burned surface area contact burn; type: in vivo, Juvenile female Yorkshire swine; settings: for BE / HCO3 / Lactate / TCO2 / arterial blood gas pH / pCO2 / pO2 / sO2: 4 Hours after Burn; for Alanine Aminotransferase / Albumin / Alkaline Phosphatase / Amylase / Aspartate Aminotransferase / BUN / Basophils / Bicarbonate / Calculated Osmolality / Cellular Hemoglobin (Optical) / Cellular Hemoglobin Concentration Mean (Optical) / Chloride / Eosinophils / Glucose / Hematocrit / Hemoglobin / Hemoglobin Distribution Width / Large Unstained Cells / Lipase / Lymphocytes / Mean Corpuscular Hemoglobin / Mean Corpuscular Hemoglobin Concentration / Mean Corpuscular Volume / Mean Platelet Volume / Monocytes / Myoglobin / Neutrophils / Platelets / Potassium / Red Blood Cells / Red Cell Distribution Width / Sodium / Total Protein / White Blood Cells / Creatinine: 24 Hours after Burn; for mortalities: n=4, over 48 hours
# Method: Using n=12 animals, we performed a pilot study of the effects of HIF-1α pathway activation with MK-8617 on survival time and volume of resuscitation fluid required to maintain urine output over 48 hours in a swine model of 40% total burned surface area mixed deep and partial thickness contact burn. Animals were block randomized into three groups, including control (vehicle only; n=4), low-dose (15 mg; n=4) and high-dose (50 mg; n=4). MK-8617 for injection was dissolved in a 45:5:50 mixture of polyethylene glycol (molecular weight: 400 daltons): dimethylsulfoxide: saline with pH adjusted to 8.4. Juvenile female Yorkshire swine weighing between 35-50 kg underwent open surgical splenectomy, then were allowed to recover for a minimum of two weeks before instrumentation with central venous and arterial lines and experimental burn. Animals received an injection of MK-8617 or vehicle at 30 minutes after burn followed by a standard-of-care crystalloid resuscitation with lactated Ringer's solution starting at 60 minutes after burn-we used a custom-built, fully closed-loop, automated resuscitation system based on the Burn Navigator to deliver goal-directed resuscitation with a target urine output of 30-50 ml/hr. Time to mortality, total fluid volumes infused, urine output generated, and serological measures of organ function were measured. Investigators remained blinded to treatment allocations until after data analysis was complete. Survival was analyzed using a log-rank test followed by a Tukey's studentized range multiple comparisons adjustment. Serological measures were analyzed using a linear model with baseline correction followed by a Tukey-Kramer multiple comparisons adjustment.
# [2] = tested on: polytrauma/hemorrhage rodent model; assay: Intravenous PHDi at 20 min after polytrauma/hemorrhage (FIG. 6); type: in vivo, rat
# Method: FIG. 6. The effect of intravenous administration of PHDi after polytrauma/hemorrhage. PHDi (MK-8617, 1 mg/kg, n=8) or vehicle (n=7) was administered intravenously at 20 min after trauma. (FIG. 6A) Mean arterial pressure (MAP); (FIG. 6B) Lactate (hyperlactatemia); (FIG. 6C) Prothrombin time (PT, acute traumatic coagulopathy); and (FIG. 6D) Fibrinogen level.
# PHDi (MK-8617, 1 mg/ml in 500 μL of 5% DMSO, 10% PEG 400, and 85% normal saline, average dose 1.26±0.05 mg/kg, n=8), or vehicle (n=7) was administered intravenously at 20 min after trauma. The surviving animals were euthanized 4 hours after trauma.
# [3] = low and high dose versus control
smiles,measurement,setting,value
"COc1ccc(C(NC(=O)c2cnc(-c3cccnn3)nc2O)c2ccc(OC)cc2)cc1 [MK-8617, N-[Bis(4-methoxyphenyl)methyl]-4-hydroxy-2-(pyridazin-3-yl)pyrimidine-5-carboxamide]",BE,[1]; High Dose (50 mg),3.75 ± 2.99 mmol/L
same,HCO3,[1]; High Dose (50 mg),28.18 ± 2.44 mmol/L
same,Lactate,[1]; High Dose (50 mg),6.98 ± 3.09 mmol/L
same,TCO2,[1]; High Dose (50 mg),29.50 ± 2.52 mmol/L
same,arterial blood gas pH,[1]; High Dose (50 mg),7.43±0.05
same,pCO2,[1]; High Dose (50 mg),42.25 ± 4.07 mmHg
same,pO2,[1]; High Dose (50 mg),209.00 ± 2.45 mmHg
same,sO2,[1]; High Dose (50 mg),100 ± 0%
same,Alanine Aminotransferase,[1]; High Dose (50 mg),50.00 ± 10.23 U/L
same,Albumin,[1]; High Dose (50 mg),0.55 ± 0.19 g/dL
same,Alkaline Phosphatase,[1]; High Dose (50 mg),159.75 ± 39.11 U/L
same,Amylase,[1]; High Dose (50 mg),58577 ± 41616 U/L
same,Aspartate Aminotransferase,[1]; High Dose (50 mg),98.75 ± 37.56 U/L
same,BUN,[1]; High Dose (50 mg),18.75 ± 1.65 mg/dL
same,Basophils,[1]; High Dose (50 mg),0.13 ± 0.05%
same,Bicarbonate,[1]; High Dose (50 mg),26.90 ± 1.65 mmol/L
same,Calculated Osmolality,[1]; High Dose (50 mg),290.00 ± 9.49
same,Cellular Hemoglobin (Optical),[1]; High Dose (50 mg),16.3 ± 0.66 pg
same,Cellular Hemoglobin Concentration Mean (Optical),[1]; High Dose (50 mg),31.30 ± 0.86 g/dL
same,Chloride,[1]; High Dose (50 mg),108.25 ± 4.99 mmol/L
same,Eosinophils,[1]; High Dose (50 mg),0.18 ± 0.05%
same,Glucose,[1]; High Dose (50 mg),69.50 ± 3.70 mg/dL
same,Hematocrit,[1]; High Dose (50 mg),29.93 ± 2.01%
same,Hemoglobin,[1]; High Dose (50 mg),9.60 ± 0.51 g/dL
same,Hemoglobin Distribution Width,[1]; High Dose (50 mg),1.78 ± 0.15 g/dL
same,Large Unstained Cells,[1]; High Dose (50 mg),0.88 ± 0.17%
same,Lipase,[1]; High Dose (50 mg),155.67 ± 71.84 U/L
same,Lymphocytes,[1]; High Dose (50 mg),38.78 ± 9.52%
same,Mean Corpuscular Hemoglobin,[1]; High Dose (50 mg),16.75 ± 0.60 pg
same,Mean Corpuscular Hemoglobin Concentration,[1]; High Dose (50 mg),32.18 ± 0.59 g/dL
same,Mean Corpuscular Volume,[1]; High Dose (50 mg),52.05 ± 0.97 fL
same,Mean Platelet Volume,[1]; High Dose (50 mg),11.53 ± 1.06 fL
same,Monocytes,[1]; High Dose (50 mg),1.98 ± 0.71%
same,Myoglobin,[1]; High Dose (50 mg),502.50 ± 148.23 ng/mL
same,Neutrophils,[1]; High Dose (50 mg),58.05 ± 9.81%
same,Platelets,[1]; High Dose (50 mg),363 ± 32 10³ cells/µL
same,Potassium,[1]; High Dose (50 mg),4.58 ± 0.85 mmol/L
same,Red Blood Cells,[1]; High Dose (50 mg),5.75 ± 0.47 10^6 cells/μL
same,Red Cell Distribution Width,[1]; High Dose (50 mg),15.55 ± 0.61%
same,Sodium,[1]; High Dose (50 mg),145.50 ± 4.51 mmol/L
same,Total Protein,[1]; High Dose (50 mg),4.38 ± 0.78 g/dL
same,White Blood Cells,[1]; High Dose (50 mg),17.5 ± 4.92 10³ cells/µL
same,Creatinine,"[1]; High Dose (50 mg), adjusted p=0.04 versus low dose",1.53 ± 0.28 mg/dL
same,BE,[1]; Low Dose (15 mg),-3.00 ± 5.48 mmol/L
same,HCO3,[1]; Low Dose (15 mg),22.30 ± 4.08 mmol/L
same,Lactate,[1]; Low Dose (15 mg),11.84 ± 4.55 mmol/L
same,TCO2,[1]; Low Dose (15 mg),23.75 ± 4.11 mmol/L
same,arterial blood gas pH,[1]; Low Dose (15 mg),7.35 ± 0.10
same,pCO2,[1]; Low Dose (15 mg),38.40 ± 5.69 mmHg
same,sO2,[1]; Low Dose (15 mg),100 ± 0%
same,pO2,"[1]; Low Dose (15 mg), adjusted p=0.007 versus control",191.75 ± 14.73 mmHg
same,Alanine Aminotransferase,[1]; Low Dose (15 mg),31.00 ± 36.77 U/L
same,Albumin,[1]; Low Dose (15 mg),0.50 ± 0.00 g/dL
same,Alkaline Phosphatase,[1]; Low Dose (15 mg),201.50 ± 10.61 U/L
same,Amylase,[1]; Low Dose (15 mg),234170 ± 286731 U/L
same,Aspartate Aminotransferase,[1]; Low Dose (15 mg),119.00 ± 80.61 U/L
same,Basophils,[1]; Low Dose (15 mg),0.20 ± 0.00%
same,Bicarbonate,[1]; Low Dose (15 mg),24.95 ± 2.62 mmol/L
same,Calculated Osmolality,[1]; Low Dose (15 mg),291.50 ± 10.61
same,Cellular Hemoglobin (Optical),[1]; Low Dose (15 mg),15.8 ± 0.42 pg
same,Cellular Hemoglobin Concentration Mean (Optical),[1]; Low Dose (15 mg),30.45 ± 0.49 g/dL
same,Chloride,[1]; Low Dose (15 mg),108.50 ± 3.54 mmol/L
same,Creatinine,[1]; Low Dose (15 mg),2.01 ± 0.16 mg/dL
same,Eosinophils,[1]; Low Dose (15 mg),0.40 ± 0.00%
same,Glucose,[1]; Low Dose (15 mg),46.00 ± 26.87 mg/dL
same,Hematocrit,[1]; Low Dose (15 mg),29.35 ± 0.64%
same,Hemoglobin,[1]; Low Dose (15 mg),9.55 ± 0.35 g/dL
same,Hemoglobin Distribution Width,[1]; Low Dose (15 mg),1.74 ± 0.17 g/dL
same,Large Unstained Cells,[1]; Low Dose (15 mg),0.80 ± 0.00%
same,Lipase,[1]; Low Dose (15 mg),19059.00 ± 26899.76 U/L
same,Lymphocytes,[1]; Low Dose (15 mg),37.55 ± 18.46%
same,Mean Corpuscular Hemoglobin,[1]; Low Dose (15 mg),16.85 ± 0.49 pg
same,Mean Corpuscular Hemoglobin Concentration,[1]; Low Dose (15 mg),32.45 ± 0.49 g/dL
same,Mean Corpuscular Volume,[1]; Low Dose (15 mg),52.05 ± 0.78 fL
same,Mean Platelet Volume,[1]; Low Dose (15 mg),14.90 ± 2.69 fL
same,Monocytes,[1]; Low Dose (15 mg),1.05 ± 0.78%
same,Myoglobin,[1]; Low Dose (15 mg),425.50 ± 318.91 ng/mL
same,Neutrophils,[1]; Low Dose (15 mg),60.05 ± 17.61%
same,Platelets,[1]; Low Dose (15 mg),329 ± 228 10³ cells/µL
same,Potassium,[1]; Low Dose (15 mg),4.75 ± 0.78 mmol/L
same,Red Blood Cells,[1]; Low Dose (15 mg),5.64 ± 0.05 10^6 cells/μL
same,Red Cell Distribution Width,[1]; Low Dose (15 mg),15.25 ± 0.78%
same,Sodium,[1]; Low Dose (15 mg),145.00 ± 5.66 mmol/L
same,Total Protein,[1]; Low Dose (15 mg),4.05 ± 0.07 g/dL
same,White Blood Cells,[1]; Low Dose (15 mg),24 ± 18.9 10³ cells/µL
same,BUN,"[1]; Low Dose (15 mg), adjusted p=0.03 versus control",29.00 ± 2.83 mg/dL
same,mortalities,[1]; high dose 50 mg,no mortalities
same,metabolic / lactic acidosis after burn,"[1]; high dose 50 mg, not statistically significant",may ameliorate metabolic acidosis; also recorded: may improve lactic acidosis
same,"effect on mortality, high dose versus low dose","[1]; high dose 50 mg, not versus control",significantly out-performing the low dose group
same,resuscitation fluid required,[1]; [3],no statistically significant differences; also recorded: did not appear to reduce resuscitation volumes
same,urine output generated,[1]; [3],no statistically significant differences; also recorded: did not appear to reduce resuscitation volumes or improve urine output
same,mortalities,[1]; low dose 15 mg,three
same,"time to mortality, low dose versus high dose","[1]; low dose 15 mg, p=0.044",significantly worse time to mortality
same,mean arterial pressure (MAP) compared with vehicle,"[2]; after treatment, MK-8617 i.v. 1.26±0.05 mg/kg at 20 min after trauma, n=8",significantly higher
same,reduction in the elevation of lactate as compared with vehicle,"[2]; at 60 min, i.v. at 20 min after trauma",about 30%
same,"prothrombin time (PT, acute traumatic coagulopathy)",[2]; i.v. at 20 min after trauma,reduced the prolongation of prothrombin time
